Reference: patent publication US20050060764A1, “Mouse model for bone metabolism” (priority 2003, published 2005)
Strand notation (5' to 3'): a small letter for the sugar, then the base; units joined by * are phosphorothioate-linked, units joined directly phosphodiester-linked; [ ] holds rarer units or linkages, { } end groups; capitals alone tell only the bases. e = 2'-O-(2-methoxyethyl) (MOE); [5mC] = 5-methylcytosine; d = 2'-deoxy (DNA)

Tested on: rat RANKL mRNA
Assay: Antisense inhibition of rat RANKL mRNA levels in UMR-106 cells, quantitative real-time PCR (Table 3)
Format: cell-based
Design: concentration or dose not given beside the values
Conditions: averages from three experiments
Description: Cells were seeded onto 24-well plates (Falcon-353047) at a density of […] for use in antisense oligonucleotide transfection.
Cells are treated and data are obtained in triplicate. […] Cells were harvested 16-24 hours after oligonucleotide treatment.
PCR reagents were obtained from Invitrogen Corporation, (Carlsbad, Calif.).
Probes and primers to rat RANKL were designed to hybridize to a rat RANKL sequence, using published sequence information (GenBank accession number NM_057149.1, incorporated herein as SEQ ID NO:18). For rat RANKL the PCR primers were: • forward primer: […] (SEQ ID NO:19) • reverse primer: […] (SEQ ID NO: 20) and the • PCR probe was: FAM-[…]-TAMRA (SEQ ID NO: 21) where FAM is the fluorescent reporter dye and TAMRA is the quencher dye. For rat GAPDH the PCR primers were: • forward primer: […](SEQ ID NO:22) • reverse primer: […](SEQ ID NO:23) and the • PCR probe was: 5′ JOE-[…]-TAMRA 3′ (SEQ ID NO: 24) where JOE is the fluorescent reporter dye and TAMRA is the quencher dye.
In accordance with the present invention, a second series of antisense compounds was designed to target different regions of the rat RANKL RNA, using published sequences (GenBank accession number NM_057149.1, incorporated herein as SEQ ID NO: 18, and GenBank accession number AF425669.1, incorporated herein as SEQ ID NO: 200). […] All cytidine residues are 5-methylcytidines. […] If present, “N.D.” indicates “no data”.

“180806 (antisense eG*eG*e[5mC]*eA*eG*d[5mC]*dA*dT*dT*dG*dA*dT*dG*dG*dT*eG*eA*eG*eG*eT) [compound 180806]” was tested. Which “% INHIB (inhibition of rat RANKL mRNA levels)” value (“% INHIB” for short) did it give?
Its value is 9%.

With “286586 (antisense eG*eG*eT*eA*e[5mC]*dT*dT*dG*d[5mC]*d[5mC]*dG*dT*dA*dG*dT*e[5mC]*eT*e[5mC]*eG*eG) [compound 286586]” as the substance, how does the “% INHIB” value read?
Its value is 63%.

“286587 (antisense eG*e[5mC]*eG*e[5mC]*eA*dG*dG*dT*dA*d[5mC]*dT*dT*dG*d[5mC]*d[5mC]*eG*eT*eA*eG*eT) [compound 286587]” was tested. Which “% INHIB” value did it give?
The value was 50%.

Which “% INHIB” value does the source give for “286588 (antisense eG*e[5mC]*eG*eA*eT*dG*d[5mC]*dT*dG*d[5mC]*dA*dG*dA*d[5mC]*d[5mC]*eA*e[5mC]*e[5mC]*eT*eG) [compound 286588]” here?
The value was 63%.

With “286589 (antisense eA*e[5mC]*eA*eG*eA*dG*d[5mC]*dG*dA*dT*dG*d[5mC]*dT*dG*d[5mC]*eA*eG*eA*e[5mC]*e[5mC]) [compound 286589]” as the substance, how does the “% INHIB” value read?
Its value is 49%.

How did the “% INHIB” value turn out when “286590 (antisense e[5mC]*eA*eG*eG*eA*dA*d[5mC]*dA*dG*dA*dG*d[5mC]*dG*dA*dT*eG*e[5mC]*eT*eG*e[5mC]) [compound 286590]” was run?
Its value is 47%.

With “286591 (antisense eA*eA*eG*eT*eA*d[5mC]*dA*dG*dG*dA*dA*d[5mC]*dA*dG*dA*eG*e[5mC]*eG*eA*eT) [compound 286591]” as the substance, how does the “% INHIB” value read?
Its value is 17%.

How did the “% INHIB” value turn out when “286592 (antisense e[5mC]*eT*e[5mC]*eG*eA*dA*dA*dG*dT*dA*d[5mC]*dA*dG*dG*dA*eA*e[5mC]*eA*eG*eA) [compound 286592]” was run?
The value was 16%.

For “286593 (antisense e[5mC]*eT*eG*e[5mC]*eG*d[5mC]*dT*d[5mC]*dG*dA*dA*dA*dG*dT*dA*e[5mC]*eA*eG*eG*eA) [compound 286593]”, which “% INHIB” value is on record?
The value was 49%.

“286594 (antisense eT*e[5mC]*e[5mC]*eA*eT*d[5mC]*dT*dG*d[5mC]*dG*d[5mC]*dT*d[5mC]*dG*dA*eA*eA*eG*eT*eA) [compound 286594]” was tested. Which “% INHIB” value did it give?
Its value is 35%.

“286595 (antisense eT*eA*eG*eG*eA*dT*d[5mC]*d[5mC]*dA*dT*d[5mC]*dT*dG*d[5mC]*dG*e[5mC]*eT*e[5mC]*eG*eA) [compound 286595]” was tested. Which “% INHIB” value did it give?
The value was 46%.

Which “% INHIB” value does the source give for “286596 (antisense eT*e[5mC]*eT*eG*eT*dT*dA*dG*dG*dA*dT*d[5mC]*d[5mC]*dA*dT*e[5mC]*eT*eG*e[5mC]*eG) [compound 286596]” here?
The value was 58%.

“286597 (antisense eG*eA*eT*eA*eT*dT*d[5mC]*dT*dG*dT*dT*dA*dG*dG*dA*eT*e[5mC]*e[5mC]*eA*eT) [compound 286597]” was tested. Which “% INHIB” value did it give?
The value was 57%.

Which “% INHIB” value does the source give for “286598 (antisense e[5mC]*eT*eT*e[5mC]*eT*dG*dA*dT*dA*dT*dT*d[5mC]*dT*dG*dT*eT*eA*eG*eG*eA) [compound 286598]” here?
The value was 6%.

How did the “% INHIB” value turn out when “286599 (antisense e[5mC]*eG*e[5mC]*eG*eT*dG*d[5mC]*dT*dG*dT*d[5mC]*dT*dT*d[5mC]*dT*eG*eA*eT*eA*eT) [compound 286599]” was run?
Its value is 46%.

“286600 (antisense eT*eT*e[5mC]*eT*eG*dT*dA*dG*dA*dA*dG*d[5mC]*dA*dG*d[5mC]*eG*e[5mC]*eG*eT*eG) [compound 286600]” was tested. Which “% INHIB” value did it give?
The value was 13%.

For “286601 (antisense eT*e[5mC]*eA*e[5mC]*eG*dG*dA*dG*dT*d[5mC]*dT*d[5mC]*dA*dG*dA*eA*eT*eT*e[5mC]*eT) [compound 286601]”, which “% INHIB” value is on record?
Its value is 63%.

Which “% INHIB” value does the source give for “286602 (antisense eA*eA*e[5mC]*e[5mC]*eT*dG*dT*dA*dT*dT*dT*dT*d[5mC]*dA*d[5mC]*eG*eG*eA*eG*eT) [compound 286602]” here?
The value was 48%.

For “286603 (antisense eA*eG*eT*e[5mC]*eG*dA*dG*dT*d[5mC]*d[5mC]*dT*dG*d[5mC]*dA*dA*eA*e[5mC]*e[5mC]*eT*eG) [compound 286603]”, which “% INHIB” value is on record?
The value was 59%.

Which “% INHIB” value does the source give for “286604 (antisense eT*e[5mC]*e[5mC]*eA*eG*dA*dG*dT*d[5mC]*dG*dA*dG*dT*d[5mC]*d[5mC]*eT*eG*e[5mC]*eA*eA) [compound 286604]” here?
Its value is 68%.

Which “% INHIB” value does the source give for “286605 (antisense eT*eT*eT*eG*e[5mC]*dA*d[5mC]*dG*dG*d[5mC]*d[5mC]*d[5mC]*d[5mC]*dT*dT*eG*eA*eA*eA*eG) [compound 286605]” here?
Its value is 53%.

Which “% INHIB” value does the source give for “286606 (antisense eT*eG*eT*eA*eA*dT*dT*d[5mC]*d[5mC]*d[5mC]*dT*dT*dT*dG*d[5mC]*eA*e[5mC]*eG*eG*e[5mC]) [compound 286606]” here?
Its value is 37%.

“286607 (antisense eT*eG*eT*eG*eG*d[5mC]*d[5mC]*d[5mC]*d[5mC]*dA*d[5mC]*dA*dA*dT*dG*eT*eG*eT*eT*eG) [compound 286607]” was tested. Which “% INHIB” value did it give?
Its value is 48%.

How did the “% INHIB” value turn out when “286608 (antisense e[5mC]*eA*eA*eA*e[5mC]*dG*dG*d[5mC]*dT*dG*dA*dG*d[5mC]*d[5mC]*dT*e[5mC]*eA*eG*eG*e[5mC]) [compound 286608]” was run?
The value was 25%.

How did the “% INHIB” value turn out when “286609 (antisense eG*e[5mC]*eA*eG*e[5mC]*dA*dT*dT*dG*dA*dT*dG*dG*dT*dG*eA*eG*eG*eT*eG) [compound 286609]” was run?
Its value is 17%.

How did the “% INHIB” value turn out when “286610 (antisense eA*e[5mC]*eT*eT*eT*dA*dT*dG*dG*dG*dA*dA*d[5mC]*d[5mC]*d[5mC]*eG*eA*eT*eG*eG) [compound 286610]” was run?
The value was 34%.

For “286611 (antisense eA*eG*eA*eG*eG*dA*d[5mC]*dA*dG*dA*d[5mC]*dT*dG*dA*d[5mC]*eT*eT*eT*eA*eT) [compound 286611]”, which “% INHIB” value is on record?
The value was 47%.

How did the “% INHIB” value turn out when “286612 (antisense eT*eG*eG*eT*eA*d[5mC]*d[5mC]*dA*dA*dG*dA*dG*dG*dA*d[5mC]*eA*eG*eA*e[5mC]*eT) [compound 286612]” was run?
The value was 5%.

Which “% INHIB” value does the source give for “286613 (antisense eG*eA*eT*e[5mC]*eA*dT*dG*dG*dT*dA*d[5mC]*d[5mC]*dA*dA*dG*eA*eG*eG*eA*e[5mC]) [compound 286613]” here?
The value was 39%.

“286614 (antisense eA*eT*e[5mC]*eT*eT*dG*dG*d[5mC]*d[5mC]*d[5mC]*dA*dG*d[5mC]*d[5mC]*dT*e[5mC]*eG*eA*eT*e[5mC]) [compound 286614]” was tested. Which “% INHIB” value did it give?
Its value is 41%.

Which “% INHIB” value does the source give for “286615 (antisense eT*eA*eG*eA*eG*dA*dT*d[5mC]*dT*dT*dG*dG*d[5mC]*d[5mC]*d[5mC]*eA*eG*e[5mC]*e[5mC]*eT) [compound 286615]” here?
The value was 45%.

With “286616 (antisense e[5mC]*eA*eT*eG*eT*dT*dA*dG*dA*dG*dA*dT*d[5mC]*dT*dT*eG*eG*e[5mC]*e[5mC]*e[5mC]) [compound 286616]” as the substance, how does the “% INHIB” value read?
Its value is 31%.

Which “% INHIB” value does the source give for “286617 (antisense eA*eG*eT*eT*eT*dT*d[5mC]*d[5mC]*dG*dT*dT*dG*d[5mC]*dT*dT*eA*eA*e[5mC]*eG*eT) [compound 286617]” here?
The value was 52%.

“286618 (antisense eA*e[5mC]*e[5mC]*e[5mC]*eT*dT*dA*dG*dT*dT*dT*dT*d[5mC]*d[5mC]*dG*eT*eT*eG*e[5mC]*eT) [compound 286618]” was tested. Which “% INHIB” value did it give?
Its value is 57%.

Which “% INHIB” value does the source give for “286619 (antisense eG*eG*eT*eT*eA*dA*d[5mC]*d[5mC]*d[5mC]*dT*dT*dA*dG*dT*dT*eT*eT*e[5mC]*e[5mC]*eG) [compound 286619]” here?
The value was 61%.

How did the “% INHIB” value turn out when “286620 (antisense eA*eT*e[5mC]*eT*eT*dG*dG*dT*dT*dA*dA*d[5mC]*d[5mC]*d[5mC]*dT*eT*eA*eG*eT*eT) [compound 286620]” was run?
The value was 48%.

“286621 (antisense eA*eA*eG*e[5mC]*e[5mC]*dA*dT*d[5mC]*dT*dT*dG*dG*dT*dT*dA*eA*e[5mC]*e[5mC]*e[5mC]*eT) [compound 286621]” was tested. Which “% INHIB” value did it give?
The value was 33%.

How did the “% INHIB” value turn out when “286622 (antisense eA*eA*eT*eA*eG*dA*dA*dG*d[5mC]*d[5mC]*dA*dT*d[5mC]*dT*dT*eG*eG*eT*eT*eA) [compound 286622]” was run?
The value was 12%.

“286623 (antisense eT*eA*eA*eT*eA*dG*dA*dA*dG*d[5mC]*d[5mC]*dA*dT*d[5mC]*dT*eT*eG*eG*eT*eT) [compound 286623]” was tested. Which “% INHIB” value did it give?
The value was 16%.

“286624 (antisense e[5mC]*eA*eG*eG*eT*dA*dA*dT*dA*dG*dA*dA*dG*d[5mC]*d[5mC]*eA*eT*e[5mC]*eT*eT) [compound 286624]” was tested. Which “% INHIB” value did it give?
Its value is 22%.

For “286625 (antisense eG*e[5mC]*eG*eT*eA*d[5mC]*dA*dG*dG*dT*dA*dA*dT*dA*dG*eA*eA*eG*e[5mC]*e[5mC]) [compound 286625]”, which “% INHIB” value is on record?
Its value is 50%.

“286626 (antisense eT*eG*eT*eT*eG*dG*d[5mC]*dG*dT*dA*d[5mC]*dA*dG*dG*dT*eA*eA*eT*eA*eG) [compound 286626]” was tested. Which “% INHIB” value did it give?
The value was 41%.
